Where two headings read alike, the source gives them in different places.
How the values were obtained:
[1] = tested on: Amaranthus palmeri MIS-D population; design: method as in Salas-Perez et al., 2017; details: ref Salas-Perez et al., 2017, cited from earlier work; for Frequency of resistant plants / Response of MIS-D to 1X dose: MIS-D field population
[2] = biological target: recombinant Amaranthus tuberculatus PPO2 wild-type enzyme (Amaranthus tuberculatus, UniProt Q0NZW9); assay: biochemical
[3] = tested on: Amaranthus palmeri R39P population; type: in vivo; details: for Frequency of resistant plants: R39P F1 population, 2X recommended dose, 21 DAT, 25 seedlings
[4] = tested on: Amaranthus palmeri (Palmer amaranth) populations MIS-D, R39P, R43P and SS; type: in vivo; details: visual injury 21 DAT, foliar spray

Chain of recombinant Amaranthus tuberculatus PPO2 wild-type enzyme (Q0NZW9 1-534): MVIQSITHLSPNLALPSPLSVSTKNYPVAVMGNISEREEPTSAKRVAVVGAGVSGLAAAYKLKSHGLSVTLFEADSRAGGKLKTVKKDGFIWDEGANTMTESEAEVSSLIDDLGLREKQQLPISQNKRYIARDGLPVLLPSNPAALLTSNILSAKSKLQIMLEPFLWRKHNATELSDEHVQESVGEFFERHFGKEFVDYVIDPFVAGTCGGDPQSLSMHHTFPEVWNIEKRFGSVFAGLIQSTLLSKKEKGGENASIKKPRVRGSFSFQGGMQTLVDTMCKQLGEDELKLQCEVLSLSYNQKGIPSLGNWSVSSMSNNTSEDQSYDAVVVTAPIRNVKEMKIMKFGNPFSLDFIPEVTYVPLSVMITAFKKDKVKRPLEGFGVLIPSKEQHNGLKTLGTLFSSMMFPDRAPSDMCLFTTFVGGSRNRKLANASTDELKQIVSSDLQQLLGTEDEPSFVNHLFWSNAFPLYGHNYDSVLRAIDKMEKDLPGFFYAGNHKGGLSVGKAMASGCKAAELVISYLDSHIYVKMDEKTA

Row | Compound | Frequency of resistant plants ([1]; 1X dose) | IC50 [2] | Frequency of resistant plants [3] | Response of MIS-D to 1X dose [1] | further results
1 | O=C(O)c1cc(Oc2ccc(C(F)(F)F)cc2Cl)ccc1[N+](=O)[O-] [Acifluorfen] | 1% | 18.5 nM | 8% | – | Mortality ([1]; MIS-D, 1X dose): > 90%; Survival rate ([3]; in vivo): < 20%
2 | C=CCOC(=O)C(C)(C)OC(=O)c1cc(-n2c(=O)cc(C(F)(F)F)n(C)c2=O)ccc1Cl [Butafenacil] | – | 0.00896 nM | – | – | –
3 | Cc1nn(-c2cc(CC(Cl)C(=O)O)c(Cl)cc2F)c(=O)n1C(F)F (stereo not shown) [Carfentrazone] | – | 0.196 nM | 64% | resistant | Frequency of resistant plants ([3]; listed as carfentrazone): ≥ 40%
4 | C#CCN1C(=O)COc2cc(F)c(N3C(=O)C4=C(CCCC4)C3=O)cc21 [Flumioxazin] | 40% | 0.039 nM | 60% | resistant | Frequency of resistant plants ([3]; listed as flumioxazin): ≥ 40%
5 | COC(=O)CSc1cc(/N=c2\sc(=O)n3n2CCCC3)c(F)cc1Cl [Fluthiacet-methyl] | – | 0.669 nM | – | resistant | –
6 | CS(=O)(=O)NC(=O)c1cc(Oc2ccc(C(F)(F)F)cc2Cl)ccc1[N+](=O)[O-] [Fomesafen] | 42% | 1.32 nM | – | resistant | ED50 (dose causing 50% herbicide injury) ([4]; MIS-D field population, PPO-resistant): 124 (101–147) g ai ha^-1; ED50 (dose causing 50% herbicide injury) ([4]; R39P F1 population, PPO-resistant): 143 (122–165) g ai ha^-1; ED50 (dose causing 50% herbicide injury) ([4]; R43P F1 population, PPO-resistant): 187 (174–202) g ai ha^-1; ED50 (dose causing 50% herbicide injury) ([4]; SS population, PPO-sensitive): 12 (10–13) g ai ha^-1; Survival rate ([3]; R39P, 2X dose): < 20%
7 | CCOC(=O)C(C)OC(=O)c1cc(Oc2ccc(C(F)(F)F)cc2Cl)ccc1[N+](=O)[O-] (stereo not shown) [Lactofen] | 23% | 0.056 nM | 40% | resistant | Frequency of resistant plants ([3]; listed as lactofen): ≥ 40%
8 | CC(C)Oc1cc(-n2nc(C(C)(C)C)oc2=O)c(Cl)cc1Cl [Oxadiazon] | – | 0.7 nM | – | – | –
9 | CCOc1cc(Oc2ccc(C(F)(F)F)cc2Cl)ccc1[N+](=O)[O-] [Oxyfluorfen] | – | 0.0342 nM | – | – | –
10 | C#CCN(C)c1c(C#N)cnn1-c1nn2c(c1Cl)CCCC2 [Pyraclonil] | – | – | – | – | IC50 ([2]; read-out: Wild type sensitivity [IC50]): 1.39 nM
11 | CCOC(=O)COc1cc(-c2nn(C)c(OC(F)F)c2Cl)c(F)cc1Cl [Pyraflufen-ethyl] | – | 0.0519 nM | – | resistant | –
12 | CC(C)N(C)S(=O)(=O)NC(=O)c1cc(-n2c(=O)cc(C(F)(F)F)n(C)c2=O)c(F)cc1Cl [Saflufenacil] | – | – | – | – | Survival rate ([3]; in vivo): < 20%
13 | Cc1nn(-c2cc(NS(C)(=O)=O)c(Cl)cc2Cl)c(=O)n1C(F)F [Sulfentrazone] | – | 17.5 nM | – | – | –
